Tests used:
human CRTH2 = target: T1, human CRTH2 (Homo sapiens, UniProt Q9Y5Y4); assay: Human CRTH2 binding assay (3H-labeled PGD2 binding, membranes of HEK293 cells transfected with human CRTH2); details: membrane preparation of HEK293 cells with human CRTH2; 2 nM 3H-labeled PGD2; 4° C., 120 minutes; read-out: IC50 (nM), in vitro human CRTH2 binding assay
T1 construct: expressed in transfected cells; host or cells: HEK293 cells, stably transfected; membrane preparation
T1 sequence (Q9Y5Y4 1-395): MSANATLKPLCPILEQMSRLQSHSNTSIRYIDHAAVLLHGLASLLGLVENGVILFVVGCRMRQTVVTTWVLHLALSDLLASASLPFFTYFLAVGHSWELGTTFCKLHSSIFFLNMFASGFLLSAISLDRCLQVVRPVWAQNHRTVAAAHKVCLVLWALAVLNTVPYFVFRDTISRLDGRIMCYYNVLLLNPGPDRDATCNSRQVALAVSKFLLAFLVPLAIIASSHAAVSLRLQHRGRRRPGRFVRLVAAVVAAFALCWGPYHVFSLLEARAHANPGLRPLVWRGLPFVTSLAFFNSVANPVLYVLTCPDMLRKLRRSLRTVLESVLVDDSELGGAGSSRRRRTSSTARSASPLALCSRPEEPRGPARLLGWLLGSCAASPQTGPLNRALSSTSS
Procedure: Human CRTH2 Binding Assay
To evaluate CRTH2 binding activities of example compounds, PGD2 binding assay was performed as modifications of former paper (Journal of pharmacology and experimental therapeutics, 2003, 306(2), pp. 463-470).
HEK293 cells stably transfected with human CRTH2 cDNA were suspended in assay buffer (10 mM BES, 1 mM EDTA, 10 mM MnCl2, pH=7.0) and broken into pieces by strong mixture using injection needle. The membrane preparation at the concentration of 50 μg protein was mixed with various concentrations of compounds. Binding reaction was initiated by an addition of ^3H-labeled PGD2 to a final concentration of 2 nM and the reaction mixture was incubated at 4° C. for 120 minutes. The reaction was terminated by filtration using GF/B plate (PerkinElmer) which was washed with wash buffer (10 mM BES, 0.01% BSA). ^3H-labeled PGD2 which binds to CRTH2 were captured on this plate and the radioactivity was measured. The total and non-specific binding were determined in the absence and presence of 10 μM DK-PGD2. The binding activity of each compound was expressed as IC50 value.

[1] = tested on: Guinea Pig antigen-induced hyper-responsiveness; assay: Guinea Pig antigen-induced hyper-responsiveness model; type: in vivo; details: OVA-sensitized male Hartley guinea pigs, AUC of peak inflation pressure versus methacholine dose
Procedure: Guinea Pig Antigen-Induced Hyper-Responsiveness Model
To evaluate anti asthma efficacy of the compounds, they were administered to Guinea Pig antigen-induced hyper-responsiveness model which is cited in the literature with minor modifications (Agents Actions, 1992, 37, pp. 162-164).
Male Hartley guinea pigs were actively sensitized to ovalbumin (OVA) by i.p. injection of 20 mg in 0.9% saline at day 0 and 1 mg at day 2. Animals were exposed for 10 minutes on days 14-21 to an aerosol of 0.5% OVA solution in 0.9% saline or saline alone generated from a nebulizer. All animals were treated with compound by p.o. administration 60 minutes prior to the aerosol and 1 mg/kg pyrilamine by i.p. injection 30 minutes prior to the aerosol. On day 22, animal was anesthetized with urethane (1.5 g/kg). The trachea was cannulated and the animal was mechanically ventilated (60 strokes/minute; 1 mL/100 g body weight) with a small animal respirator. Pulmonary inflation pressure (PIP) was monitored with a pressure transducer. Doses of methacholine (0-14 μg/kg) were administered sequentially (3 minutes intervals) by the right jugular vein to each animal. The area under the peak inflation pressure versus methacholine dose curve (AUC) was calculated for each animal.

| Structure (SMILES) | IC50 (human CRTH2) [nM] | inhibition (%) ([1]; dose 10 mg/kg p.o.) | inhibition (%) ([1]; dose 3 mg/kg p.o.) | inhibition (%) ([1]; dose 1 mg/kg p.o.) |
| --- | --- | --- | --- | --- |
| O=C(O)COc1cccc(CCCn2cc(C(c3ccccc3)c3ccccc3)ccc2=O)c1 [Example 10, (3-{3-[5-(diphenylmethyl)-2-oxopyridin-1(2H)-yl]propyl}phenoxy)acetic acid] | 42 | 100 |  |  |
| O=C(O)CCCOc1cccc(CCCn2nc(C(c3ccccc3)c3ccccc3)ccc2=O)c1 [Example 69, 4-(3-{3-[3-(Diphenylmethyl)-6-oxopyridazin-1(6H)-yl]propyl}phenoxy)butanoic acid] | 14 |  |  |  |
| O=C(O)CCCOc1cccc(CCCn2nc(C(c3ccc(F)cc3)c3ccc(F)cc3)ccc2=O)c1 [Example 111, 4-[3-(3-{3-[Bis(4-fluorophenyl)methyl]-6-oxopyridazin-1(6H)-yl}propyl)phenoxy]butanoic acid] | 18 |  | 89 |  |
| O=C(O)CCCOc1cccc(CCCn2cc(C(c3ccc(F)cc3)c3ccc(F)cc3)ccc2=O)c1 [Example 112, 4-[3-(3-{5-[Bis(4-fluorophenyl)methyl]-2-oxopyridin-1(2H)-yl}propyl)phenoxy]butanoic acid] | 24 |  |  | 60 |

The next compounds have a lower IC50 (human CRTH2) than those just listed; values first:

| IC50 (human CRTH2) [nM] | Structure (SMILES) | inhibition (%) ([1]; dose 10 mg/kg p.o.) | inhibition (%) ([1]; dose 3 mg/kg p.o.) | inhibition (%) ([1]; dose 1 mg/kg p.o.) |
| --- | --- | --- | --- | --- |
| 3.6 | O=C(O)Cn1ccc2c(CCCn3cc(C(c4ccccc4)c4ccccc4)ccc3=O)cccc21 [Example 4, (4-{3-[5-(diphenylmethyl)-2-oxopyridin-1(2H)-yl]propyl}-1H-indol-1-yl)acetic acid] |  |  |  |
| 13 | C[C@H](Oc1cccc(CCCn2nc(C(c3ccccc3)c3ccccc3)ccc2=O)c1)C(=O)O [Example 59, (2S)-2-(3-{3-[3-(Diphenylmethyl)-6-oxopyridazin-1(6H)-yl]propyl}phenoxy)propanoic acid] |  | 93 |  |
| 5.5 | O=C(O)COc1cccc(CCCN2C(=O)OC[C@@H]2C(c2ccccc2)c2ccccc2)c1 [Example 72, (3-{3-[(4S)-4-(Diphenylmethyl)-2-oxo-1,3-oxazolidin-3-yl]propyl}phenoxy)acetic acid] |  |  |  |
| 8.1 | O=C(O)CCCOc1cccc(SCCn2cc(C(c3ccccc3)c3ccccc3)ccc2=O)c1 [Example 84, 4-[3-({2-[5-(Diphenylmethyl)-2-oxopyridin-1(2H)-yl]ethyl}sulfanyl)phenoxy]butanoic acid] |  | 100 |  |
| 4.8 | NS(=O)(=O)c1cccc(C(=O)N(CCCc2cccc(OCC(=O)O)c2)CCC(c2ccccc2)c2ccccc2)c1 [Example 99, [3-(3-{[3-(Aminosulfonyl)benzoyl](3,3-diphenylpropyl)amino}propyl)phenoxy]acetic acid] |  |  |  |
| 7.6 | O=C(O)COc1cccc(CCCn2cc(-c3ccccc3-c3cccc4ccccc34)ccc2=O)c1 [Example 123, [3-(3-{5-[2-(1-Naphthyl)phenyl]-2-oxopyridin-1(2H)-yl}propyl)phenoxy]acetic acid] |  |  |  |
